What was measured:
Type in all cases: cell-based
Lc-2/ad = test: Cell growth curves, human cells; conditions: LADC, CCDC6-RET, read-out: IC50 (95% CI), growth inhibition
Description: (§1) The IC50 dose for all human RET-negative cells was >100.0 nM, confirming compound selectivity (Figure S8 and Table S4).
(§2) Nthy-ory-3-1 (10000 per well), TPC-1 (10000 per well), MZ-CRC-1 (100000 per well), TT (200000 per well), Lc-2/ad (100000 per well), BCPAP (10000 per well), 8505-C (10000 per well), PC-9 (10000 per well), A549 (10000 per well), CALU-1 (10000 per well), NIH3T3 RET/C634Y (10000 per well), and NIH3T3 HRAS/G12V (10000 per well) were seeded in six-well tissue culture plates. Cells were kept in 2% (TPC-1), 5% (Nthy-ori-3-1), or 10% (BCPAP, 8505-C, CALU-1, A549, PC-9, TT, MZ-CRC-1, and Lc-2/ad) fetal calf serum or in 2% (NIH3T3 RET/C634Y and HRAS/G12V) calf serum. Ba/F3 cells (200000 per well in 2 mL) were seeded in six-well tissue culture plates and kept in 10% fetal calf serum. The day after plating, different concentrations of the drug or vehicle were added to the medium and changed every 2–3 days. Cells were counted every day (Ba/F3), every 2 days (fibroblasts), or every 2–3 days (human cell lines). To compare cell growth, we performed an unpaired Student’s t test using the Instat software program (Graphpad Software Inc.). All P values were two-sided, and differences were considered to be statistically significant at P < 0.02. IC50 doses were calculated through a curve fitting analysis from last day of growth curves using the PRISM software program (Graphpad Software Inc.).
(§3) Supplementary Table S4: NPA101.3 growth inhibitory effect on human cells.
(§4) *MTC (medullary thyoroid carcinoma); PTC (papillary thyroid carcinoma); ATC
(§5) (anaplastic thyroid carcinoma); LADC (lung adenocarcinoma)

MZ-CRC-1 = test: Cell growth curves, human cells; conditions: MZ-CRC-1, MTC, RET M918T, read-out: IC50 (95% CI), growth inhibition
Description: as §1, §2, §3, §4, §5

TT = test: Cell growth curves, human cells; conditions: MTC, RET C634W, read-out: IC50 (95% CI), growth inhibition
Description: as §1, §2, §3, §4, §5

[1] = tested on: RET (either transfected or endogenously expressing) mutant cells; test: Growth inhibition, all RET mutant cells (summary); conditions: range over transfected and endogenously expressing cells; read-out: IC50, growth inhibitory effect on RET mutant cells
Description: Finally, NPA101.3 featured efficacy already at 1 mg/kg/day in RET-driven tumors in nude mice. […] Therefore, though in a therapeutic setting toxicity may be increased by hitting multiple targets, it is feasible that the activity of the NPA101.3 against RET-driven tumors may take advantage of a synergistic combination of cell autonomous (on tumor cell growth mediated by RET inhibition) and non-cell autonomous (on blood vessel formation mediated by VEGFR2 inhibition) effects, potentiating its effect and reducing the chances of resistance development. Several TKIs with anti-RET activity are available, and some are already registered for the treatment of different types of thyroid cancers. […]
Nthy-ory-3-1 (10000 per well), TPC-1 (10000 per well), MZ-CRC-1 (100000 per well), TT (200000 per well), Lc-2/ad (100000 per well), BCPAP (10000 per well), 8505-C (10000 per well), PC-9 (10000 per well), A549 (10000 per well), CALU-1 (10000 per well), NIH3T3 RET/C634Y (10000 per well), and NIH3T3 HRAS/G12V (10000 per well) were seeded in six-well tissue culture plates. […] Cells were counted every day (Ba/F3), every 2 days (fibroblasts), or every 2–3 days (human cell lines). […] IC50 doses were calculated through a curve fitting analysis from last day of growth curves using the PRISM software program (Graphpad Software Inc.).

[2] = tested on: TT (RET/C634W), MZ-CRC-1 (RET/M918T), TPC-1 (CCDC6-RET); test: RET autophosphorylation and SHC/MAPK signalling in RET mutant human cancer cell lines; conditions: 2 h treatment
Description: NPA101.3 inhibited RET autophosphorylation and signaling along the SHC/MAPK pathway in human cancer cell lines endogenously expressing RET oncogenic variants, including MTC cell lines, TT (RET/C634W) and MZ-CRC-1 (RET/M918T), and PTC cell line TPC-1 (CCDC6-RET); in the lung adenocarcinoma cell line Lc-2/ad (CCDC6-RET), only RET and SHC (but not MAPK) dephosphorylation was detectable (Figure S4).
Protein lysates were prepared according to standard procedures. Briefly, cells were lysed in a buffer containing 50 mM N-2-hydroxyethylpiperazine-N′-2-ethanesulfonic acid (HEPES; pH 7.5), 1% (v/v) Triton X-100, 150 mM NaCl, 5 mM EGTA, 50 mM NaF, 20 mM sodium pyrophosphate, 1 mM sodium vanadate, 2 mM phenylmethanesulfonyl fluoride (PMSF), and 1 μg/mL aprotinin. Lysates were clarified by centrifugation at 10000g for 15 min. […] Immune complexes were detected with the enhanced chemiluminescence kit (Amersham Pharmacia Biotech, Little Chalfont, U.K.). Anti-phospho-SHC (#Y317), which recognizes SHC protein when phosphorylated on Y317, was from Upstate Biotechnology Inc. (Lake Placid, NY). Anti-SHC (H-108) was from Santa Cruz Biotechnology (Santa Cruz, CA). Anti-MAPK (9101) and anti-phospho-MAPK (9102), specific for p42/44MAPK (ERK1/2) phosphorylated on Thr202/Tyr204, antibodies were from Cell Signaling Technologies (Danvers, MA). […]

Which results are given for CC(C)(C)c1cc(NC(=O)Cc2ccc(-n3cnc4cc(-c5ccc(S(C)(=O)=O)cc5)ccc43)cc2)no1 [NPA101.3]?
IC50 (Lc-2/ad): 3.6 nM; IC50 (MZ-CRC-1): 2.21 nM; IC50 (TT): 2.19 nM; IC50 [1]: 0.67 to 4.17 nM; RET autophosphorylation and signaling along the SHC/MAPK pathway [2]: inhibited
